# Results as given in patent US10058587B2, “Peptide composition for cancer treatment by inhibiting TRPV6 calcium channel activity” (priority 2008, dated 2018).
# Where no end group is shown, it is not given here.
# Experiments:
# [1] = tested on: MDA-MB-468 (MB 468) breast cancer cell line; assay: Induction of apoptosis (APO-ONE caspase 3/7) and cell viability (CellTiter Blue); format: cell-based, human; design: key: cell viability decreased (+); or not (−)
# Experimental: (§1) MCF-7, MDA-MB-231, MDA-MB-415, MDA-MB-468 were grown in DMEM modified with 10% (v/v) fetal bovine serum, 2 mM L-glutamine and 50 ug/mL each of penicillin and streptomycin.
# (§2) The levels of apoptotic induction and cell viability were determined by multiplexing the measurements for single samples. CellTiter Blue and APO-ONE assay systems from Promega allows the determination of cell viability correlated to cell number, and induction of apoptosis. This protocol uses a fluorgenic peptide that contains a peptide recognition-sequence for caspase 3 and caspase 7, […] proteolytic enzymes of the apoptosis cascade. The CellTiter Blue reagent was added to wells in a 96-well plate containing cells under test, immediately after addition of peptide solution or vehicle. About 5000 cells were plated into the wells the day before. At the chosen time (Day 1, Day 2 etc.) the fluorescence was measured at 590 nm (emission) after excitation at 560 nm. The caspase 3/7 activity was measured (485 nm Ex/527 nm Em) in the same wells after adding 120 uL of the Apo-ONE reagent, freeze fracturing at −80° C. for 1 hr, and incubating for 1 hr at room temperature.
# (§3) For this work, the concentrations of SorC13 and SorC27 used were 0 uM, 1 uM, 10 uM and 100 uM. The experiments extended over a 5 to 7 day period. All measurements were done in quadruplicate with both a blank (no cells) and control (vehicle, no peptide) used to correct the test measurements. The time-response data, and the dose-response data were plotted as means±standard error of the mean. Any statistical comparisons were done with the Student's t-test or by ANOVA analysis over the dose course. The level of statistical significance was considered to be the 95% confidence interval (i.e., p≤0.05).
# [2] = tested on: MCF 7 breast cancer cell line; assay: as above; format: cell-based, human; design: key: cell viability decreased (+); or not (−)
# Experimental: as §1, §2, §3
# To benchmark the effect of both C-type peptides to the gold-standard treatment presently used against breast cancer (Paclitaxel), SorC13, SorC27 and Paclitaxel (10 uM) were compared. Both the APO-ONE assay (Promega) and the CellTiter Blue were used on the panel of breast cancer cell lines. […]
# [3] = tested on: K-562; assay: Apoptosis and cell viability in CML cell line (Example 12); format: cell-based, human; conditions: 0, 10 and 100 uM, 5 to 7 days
# Experimental: For this work, the concentrations of SorC13 and SorC27 used are 0 uM, 10 uM and 100 uM. The experiments extend over a 5 to 7 day period. All measurements are done in quadruplicate with both a blank (no cells) and control (vehicle, no peptide) used to correct the test measurements. The time-response data, and the dose-response data are plotted as means±standard error of the mean.
# The cell line K-562 (from ATCC CCL-243) is grown under the recommended conditions and in culture media recommended by ATCC. The cell lines were cultured under sterile conditions at 37° C., in a humidified 5% CO2 atmosphere.
# Induction of apoptosis and attendant decrease is observed in cell viability in the cancer cell lines. From the large increases in the activities of the caspase 3/7 activity, it is clear that there is a time dependent effect and a dose dependent effect on the induction of apoptosis.
# [4] = tested on: Human Non-Small Cell Lung Carcinoma (NSCLC) lines H1437 and H2087; assay: Apoptosis (APO-ONE) and cell viability (CellTiter Blue) in NSCLC lines (Example 9); format: cell-based; conditions: 10 and 100 uM
# Experimental: The effects of the C-peptides on metastasizing human lung carcinoma cells are studied. […] In vitro studies employing SorC13 and SorC27 are carried out in metastatic lymph node-derived cell lines to determine their effect on Human Non-Small Cell Lung Carcinoma (NSCLC) lines H1437 (from ATCC CRL-5872) and H2087 (from ATCC CRL-5922). Both of these cell lines are adenocarcinomas derived from the metastaic site (lymph node) and from a stage 1 NSCLC lung cancer. Major lymphatics of interest which are usefully treated with peptides of the invention include superfacial cervical nodes, axillary nodes, brachial nodes, mesenteric nodes and inguinal nodes.
# For the study, the cell lines are grown under the recommended conditions and in culture media recommended by ATCC. The cell lines are cultured under sterile conditions at 37° C., in a humidified 5% CO2 atmosphere.
# Both the APO-ONE assay and the CellTiter Blue (Promega) are used on the cell lines to evaluate apoptosis and cell viability, respectively.
# [5] = Degradation rate in rat plasma (HPLC); format: in vitro ADME
# Experimental: Rat plasma was obtained from blood taken from sacrificed rats (Sprague-Dawley) and placed into heparinized glass vials to prevent clotting. Whole blood was centrifuged at 8000×g for 5 minutes to spin down the cells leaving the plasma as supernatant. Human whole blood samples from healthy humans were taken in lithium-heparinized vacuum tubes. The samples were placed into 2.0 mL microcentrifuge tubes and centrifuged at 8000×g for 5 min. The plasma was carefully separated from red blood cells and used immediately.
# Determination of degradation rate of the C-peptides was done by measuring, with the HPLC protocol, the amount of either SorC13 or SorC27 in dosed plasma samples, after time. Sample tubes (500 uL) containing 2 uL of 2 mM Pefabloc were previously prepared for sample delivery SorC13 (1.0 mg) or SorC27 (2.0 mg) were dissolved in 1.0 mL of fresh plasma (37° C.) and placed in an incubating water bath at 37° C. A sample (100 uL) was taken immediately and quenched in sample tubes containing 2 uL of 2 mM Pefabloc, mixed vigorously and immediately frozen at −80° C. This initial sample represented time zero for the run. At successive time intervals of 5 minutes, 100 uL samples were withdrawn, quenched in Pefabloc, mixed, and frozen at −80° C. until analysis.
# The rat plasma degradation rate was determined for the plasma from three different rats, while the rate of degradation in human plasma used six separate plasma samples. The data used were the means (±SEM) and were fitted to a simple one-phase exponential decay model to determine the half-life of the two peptides. This also allowed the calculation of a static degradation rate. FIG. 11 is illustrative of the rate at which SorC27 was degraded in human plasma.
Sequence,Decline in cell viability ([1]; SorC13 1 uM),Decline in cell viability ([1]; SorC13 10 uM),Decline in cell viability ([1]; SorC13 100 uM),Decline in cell viability ([2]; SorC13 1 uM),Decline in cell viability ([2]; SorC13 10 uM),Decline in cell viability ([2]; SorC13 100 uM),induction of apoptosis and cell viability [3],induction of apoptosis [4],"half-life ([5]; Sprague-Dawley, rat, plasma, 37° C.)",binding to plasma proteins ([5]; rat plasma)
"KEFLHPSKVDLPR [SorC13, KEFLHPSKVDLPR]",+,+,+,−,−,+,induces apoptosis and decreases cell viability,induce apoptosis,,
EGKLSSNDTEGGLCKEFLHPSKVDLPR [SorC27],,,,,,,induces apoptosis and decreases cell viability,induce apoptosis,21 min,doesn't bind to
